Laboratory results from patent publication US8742132B2, “Indolylmaleimide derivatives processes for their production and pharmaceutical compositions” (Novartis AG, priority 2006, dated 2014).

Legend:
Human recombinant PKCβ1 = target: T1, Human recombinant PKCβ1 (Homo sapiens, UniProt P05771); experiment: Protein Kinase Cβ1 Assay; assay type: biochemical; details: single compounds
T1 construct: purchased Oxford Biomedical Research
Procedure: (§1) The compounds of the invention are tested for their activity on different PKC isoforms according to the following method. Assay is performed in a white with clear bottom 384-well microtiterplate with non-binding surface. The reaction mixture (25 μl) contains 1.5 μM of a tridecapeptide acceptor substrate that mimics the pseudo substrate sequence of PKC a with the Ala→Ser replacement, 10 μM ^33P-ATP, 10 mM Mg(NO3)2, 0.2 mM CaCl2, PKC at a protein concentration varying from 25 to 400 ng/ml (depending on the isotype used), lipid vesicles (containing 30 mol % phosphatidylserine, 5 mol % DAG and 65 mol % phosphatidylcholine) at a final lipid concentration of 0.5 mM, in 20 mM Tris-HCl buffer pH 7.4 +0.1% BSA. Incubation is performed for 60 min at room temperature. Reaction is stopped by adding 50 μl of stop mix (100 mM EDTA, 200 μM ATP, 0.1% Triton X-100, 0.375 mg/well streptavidin-coated SPA beads in phosphate buffered saline w/o Ca, Mg. After 10 min incubation at room temperature, the suspension is spun down for 10 min at 300 g. Incorporated radioactivity is measured in a Trilux counter for 1 min. IC50 measurement is performed on a routine basis by incubating a serial dilution of inhibitor at concentrations ranging between […]. IC50 values are calculated from the graph by curve fitting with XL Fit® software. […]

Human recombinant PKCα = target: T2, Human recombinant PKCα (Homo sapiens, UniProt P17252); experiment: Protein Kinase Cα Assay; assay type: biochemical; details: single compounds
T2 construct: purchased Oxford Biomedical Research
Procedure: as §1

T1 sequence (P05771 whole entry): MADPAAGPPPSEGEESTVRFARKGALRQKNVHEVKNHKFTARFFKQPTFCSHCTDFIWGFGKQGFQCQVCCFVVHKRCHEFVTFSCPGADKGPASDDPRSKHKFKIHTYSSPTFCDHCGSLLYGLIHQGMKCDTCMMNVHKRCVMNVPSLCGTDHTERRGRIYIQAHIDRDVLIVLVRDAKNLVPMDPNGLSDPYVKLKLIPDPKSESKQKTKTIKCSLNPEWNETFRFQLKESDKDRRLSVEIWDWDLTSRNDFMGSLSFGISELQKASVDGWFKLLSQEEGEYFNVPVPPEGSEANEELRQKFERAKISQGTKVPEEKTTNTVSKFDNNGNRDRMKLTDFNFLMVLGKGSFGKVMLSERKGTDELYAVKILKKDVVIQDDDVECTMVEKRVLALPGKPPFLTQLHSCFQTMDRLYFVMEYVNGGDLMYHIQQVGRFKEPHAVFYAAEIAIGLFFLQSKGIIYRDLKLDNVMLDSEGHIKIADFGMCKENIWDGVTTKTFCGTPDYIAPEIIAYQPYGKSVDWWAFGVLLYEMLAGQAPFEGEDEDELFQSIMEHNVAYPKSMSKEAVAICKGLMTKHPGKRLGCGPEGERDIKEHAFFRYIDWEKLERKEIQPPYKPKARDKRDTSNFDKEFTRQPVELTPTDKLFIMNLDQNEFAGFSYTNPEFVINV

SMILES | IC50 (Human recombinant PKCβ1) | IC50 (Human recombinant PKCα)
Cc1cc2ccc(CN(C)C)cn2c1C1=C(c2c[nH]c3ccccc23)C(=O)NC1=O [Example 24, 3-(6-Dimethylaminomethyl-2-methyl-indolizin-3-yl)-4-(1H-indol-3-yl)-pyrrole-2,5-dione] | 18.2 nM | –
CNCc1ccc2[nH]c(C)c(C3=C(c4cn(C)c5ccccc45)C(=O)NC3=O)c2c1 [Example 51] | – | 0.3 nM
Cc1ccc2c(C3=C(c4c(C(F)(F)F)[nH]c5ccc(CN(C)C)cc45)C(=O)NC3=O)c[nH]c2c1 [Example 47] | 0.9 nM | –
